Measured values: patent US20240174647A1 (NEURON23, INC., priority 2022, published 2024)

biological target: wt human LRRK2, catalytic site (Homo sapiens (Human), UniProt Q5S007); test: TR-FRET LanthaScreen Tb Kinase Activity Assay (LRRK2 kinase inhibition); type: biochemical; settings: 2 nM wt human LRRK2, 400 nM fluorescein-ERM (LRRKtide) peptide, 38 μM ATP, 120 minutes at room temperature
In short: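 LanthaScreen TR-FRET with 2 nM wt human LRRK2 catalytic site, 400 nM fluorescein-ERM (LRRKtide) peptide and 38 µM ATP in Kinase Buffer A; 120 min at room temperature. Phosphorylation detected with EDTA and Tb-anti-pLRRKtide after 60 min; IC50 from emission ratios.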

Sequence of wt human LRRK2, catalytic site (Q5S007 1879-2138): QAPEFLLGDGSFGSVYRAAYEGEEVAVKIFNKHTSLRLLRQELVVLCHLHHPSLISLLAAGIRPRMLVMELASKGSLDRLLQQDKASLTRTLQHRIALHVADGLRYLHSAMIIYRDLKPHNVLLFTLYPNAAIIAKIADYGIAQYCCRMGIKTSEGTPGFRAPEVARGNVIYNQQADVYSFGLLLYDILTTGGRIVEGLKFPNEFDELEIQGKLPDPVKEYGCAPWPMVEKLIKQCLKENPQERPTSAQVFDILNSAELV

SMILES | IC50 [nM]
CC(C)n1ncc2c(Nc3ncc(C(F)(F)F)c(NC4CC4)n3)cccc21 [Example 169, N4-cyclopropyl-N2-(1-isopropyl-1H-indazol-4-yl)-5-(trifluoromethyl)pyrimidine-2,4-diamine] | < 50
O=S(=O)(CCn1ncc2c(Nc3ncc(C(F)(F)F)c(NC4CC4)n3)cccc21)C1CC1 [Example 170, N^4-cyclopropyl-N^2-(1-(2-(cyclopropylsulfonyl)ethyl)-1H-indazol-4-yl)-5-(trifluoromethyl)pyrimidine-2,4-diamine] | < 50
CCS(=O)(=O)CCn1ncc2c(Nc3ncc(C(F)(F)F)c(NC4CC4)n3)cccc21 [Example 171, N^4-cyclopropyl-N^2-(1-(2-(ethylsulfonyl)ethyl)-1H-indazol-4-yl)-5-(trifluoromethyl)pyrimidine-2,4-diamine] | < 50
CC(C)(O)Cn1ncc2c(Nc3ncc(C(F)(F)F)c(NC4CC4)n3)ccc(F)c21 [Example 172, 1-(4-((4-(cyclopropylamino)-5-(trifluoromethyl)pyrimidin-2-yl)amino)-7-fluoro-1H-indazol-1-yl)-2-methylpropan-2-ol] | < 50
CC(C)(O)Cn1ncc2c(Nc3ncc(C(F)F)c(NC4CC4)n3)cccc21 [Example 173, 1-[4-[[4-(cyclopropylamino)-5-(difluoromethyl)pyrimidin-2-yl]amino]indazol-1-yl]-2-methyl-propan-2-ol] | < 50
Cc1ccc(Nc2ncc(C(F)(F)F)c(NC3CC3)n2)c2cnn(CCS(C)(=O)=O)c12 [Example 174, N4-cyclopropyl-N2-(7-methyl-1-(2-(methylsulfonyl)ethyl)-1H-indazol-4-yl)-5-(trifluoromethyl)pyrimidine-2,4-diamine] | < 50
CC(C)(O)Cn1ncc2c(Nc3ncc(C(F)F)c(NC4CC4)n3)ccc(F)c21 [Example 175, 1-[4-[[4-(cyclopropylamino)-5-(difluoromethyl)pyrimidin-2-yl]amino]-7-fluoro-indazol-1-yl]-2-methyl-propan-2-ol] | < 50
CCNc1nc(Nc2cccc3c2cnn3CC(C)(C)O)nc2[nH]cc(Cl)c12 [Example 176, 1-[4-[[5-chloro-4-(ethylamino)-7H-pyrrolo[2,3-d]pyrimidin-2-yl]amino]indazol-1-yl]-2-methyl-propan-2-ol] | < 50
CS(=O)(=O)CCn1ncc2c(Nc3ncc(C(F)(F)F)c(NC4CC4)n3)ccc(F)c21 [Example 177, N^4-cyclopropyl-N^2-[7-fluoro-1-(2-methylsulfonylethyl)indazol-4-yl]-5-(trifluoromethyl)pyrimidine-2,4-diamine] | < 50
CNc1nc(Nc2ccc3c4c2cnn4CCO3)ncc1C(F)(F)F [Example 178, N^4-methyl-N^2-(9-oxa-1,2-diazatricyclo[6.3.1.04,12]dodeca-2,4,6,8(12)-tetraen-5-yl)-5-(trifluoromethyl)pyrimidine-2,4-diamine] | < 50
FC(F)(F)c1cnc(Nc2ccc3c4c2cnn4CCO3)nc1NC1CC1 [Example 179, N^4-cyclopropyl-N^2-(2,3-dihydro-[1,4]oxazino[2,3,4-hi]indazol-7-yl)-5-(trifluoromethyl)pyrimidine-2,4-diamine] | < 50
CC(C)Nc1nc(Nc2ccc3c4c2cnn4CCO3)ncc1C(F)(F)F [Example 180, N^4-isopropyl-N^2-(9-oxa-1,2-diazatricyclo[6.3.1.04,12]dodeca-2,4,6,8(12)-tetraen-5-yl)-5-(trifluoromethyl)pyrimidine-2,4-diamine] | < 50
CCNc1nc(Nc2ccc(F)c3c2cnn3CC(C)(C)O)nc2[nH]nc(Cl)c12 [Example 181, 1-(4-((3-chloro-4-(ethylamino)-1H-pyrazolo[3,4-d]pyrimidin-6-yl)amino)-7-fluoro-1H-indazol-1-yl)-2-methylpropan-2-ol] | < 50
Cc1n[nH]c2nc(Nc3cccc4c3cnn4CCS(C)(=O)=O)nc(NC3CC3)c12 [Example 182, N^4-cyclopropyl-3-methyl-N^6-[1-(2-methylsulfonylethyl)indazol-4-yl]-1H-pyrazolo[3,4-d]pyrimidine-4,6-diamine] | < 50
CNc1nc(Nc2cccc3c2cnn3CC(C)(C)O)nc2[nH]nc(Cl)c12 [Example 183, 1-[4-[[3-chloro-4-(methylamino)-1H-pyrazolo [3,4-d]pyrimidin-6-yl]amino]indazol-1-yl]-2-methyl-propan-2-ol] | < 50
CNc1nc(Nc2cccc3c2cnn3CC(C)(C)O)nc2[nH]cnc12 [Example 184, 2-methyl-1-[4-[[6-(methylamino)-9H-purin-2-yl]amino]indazol-1-yl]propan-2-ol] | < 50
CCNc1nc(Nc2cccc3c2cnn3CC(F)F)nc2[nH]nc(C)c12 [Example 185, N^6-(1-(2,2-difluoroethyl)-1H-indazol-4-yl)-N^4-ethyl-3-methyl-1H-pyrazolo[3,4-d]pyrimidine-4,6-diamine] | < 50
CCNc1nc(Nc2cccc3c2cnn3CCS(C)(=O)=O)ncc1C(F)(F)F [Example 186, N^4-ethyl-N^2-[1-(2-methylsulfonylethyl)indazol-4-yl]-5-(trifluoromethyl) pyrimidine-2,4-diamine] | < 50
CS(=O)(=O)CCn1ncc2c(Nc3ncc(C(F)(F)F)c(NCC4CC4)n3)cccc21 [Example 187, N^4-(cyclopropylmethyl)-N^2-(1-(2-(methylsulfonyl)ethyl)-1H-indazol-4-yl)-5-(trifluoromethyl)pyrimidine-2,4-diamine] | < 50
CNc1nc(Nc2cccc3c2cnn3CCS(C)(=O)=O)ncc1C(F)(F)F [Example 188, N^4-methyl-N^2-[1-(2-methylsulfonylethyl)indazol-4-yl]-5-(trifluoromethyl) pyrimidine-2,4-diamine] | < 50
CC(C)(C#N)n1ncc2c(Nc3ncc(C(F)(F)F)c(NC4CC4)n3)ccnc21 [Example 189, 2-(4-((4-(cyclopropylamino)-5-(trifluoromethyl)pyrimidin-2-yl)amino)-1H-pyrazolo[3,4-b]pyridin-yl)-2-methylpropanenitrile] | < 50
FC(F)(F)c1cnc(Nc2cccc3c2cnn3C2CC2)nc1NC1CC1 [Example 190, N^4-cyclopropyl-N^2-(1-cyclopropyl-1H-indazol-4-yl)-5-(trifluoromethyl) pyrimidine-2,4-diamine] | < 50
CC1(Nc2nc(Nc3cccc4c3cnn4CCS(C)(=O)=O)ncc2C(F)(F)F)CC1 [Example 191, N^4-(1-methylcyclopropyl)-N^2-(1-(2-(methylsulfonyl)ethyl)-1H-indazol-4-yl)-5-(trifluoromethyl)pyrimidine-2,4-diamine] | < 50
CS(=O)(=O)CCn1ncc2c(Nc3ncc(C(F)F)c(NC4CC4)n3)cccc21 [Example 192, N^4-cyclopropyl-5-(difluoromethyl)-N^2-[1-(2-methylsulfonylethyl)indazol-4-yl]pyrimidine-2,4-diamine] | < 50
FC(F)(F)c1cnc(Nc2cccc3c2cnn3CCN2CCOCC2)nc1NC1CC1 [Example 193, N^4-cyclopropyl-N^2-(1-(2-morpholinoethyl)-1H-indazol-4-yl)-5-(trifluoromethyl)pyrimidine-2,4-diamine] | < 50
CC(C)S(=O)(=O)CCn1ncc2c(Nc3ncc(C(F)(F)F)c(NC4CC4)n3)cccc21 [Example 194, N4-cyclopropyl-N^2-(1-(2-(isopropylsulfonyl)ethyl)-1H-indazol-4-yl)-5-(trifluoromethyl)pyrimidine-2,4-diamine] | < 50
